Test results from US20040018482A1, “Loading and unloading of permeating protectants for cell, tissue, and organ cryopreservation by vitrification” (priority 1997, published 2004).

Legend:
[1] = tested on: isolated rat heart; test: Cardiac function of isolated rat heart (working mode reperfusion) after DMSO loading and unloading
Experimental: Preparation of the Cardiac Explant: The animal experiments were conducted in accordance with the “Principles of Laboratory Animal Care” formulated by the Institute of Laboratory Animal Resources and the “Guide for the Care and Use of Laboratory Animals” prepared by the Institute of Laboratory Animal Resources and published by the National Institute of Health (NIH Publication No. 86-23, 1985). Male Sprague-Dawley rats (300-350g) were anesthetized with sodium pentobarbital (65 mg/kg, ip) and anticoagulated with heparin (250u, iv). The heart was excised and immediately immersed in ice-cold Krebs-Henseleit buffer (KHB), which contained (in mM): 118 NaCl, 11 glucose, 25 NaHCO3, 4.7 KCl, 1.2 MgSO4, 1.2 KH2PO4, 0.5 Na-EDTA, and 2.5 CaCl2. The aorta was cannulated and the heart retrograde perfused at 70 mm Hg for 9 min. with 36.5° C. KHB equilibrated with 95% 02/[…]. The perfusion was continued for 2 min. at 60 mm Hg with CP-11E saturated with 100% 02. The composition of CP-11E (in mM) was: 125 NaCl, 7 glucose, 1.2 KH2PO4, 10 mannitol, 15 MgSO4, 14 KCl, 10 Hepes, 0.02 EDTA, 0.28 CaCl2 , pH 7.5.
After CP-11E flush, the arrested heart was transferred to a perfusion apparatus (FIG. 1). Both CP-11EB and CP-11E+DMSO+mannitol were bubbled constantly with 100% 02. Perfusate was delivered via an aortic cannula by a peristaltic pump at a flow rate of 1 ml/min. Two experiments were performed at room temperature.
Experiment 0: The heart was gradually loaded with 30 wt % DMSO and immediately unloaded. No co-solutes were used. […]
Assessment of cardiac function: Cardiac function was assessed by working mode reperfusion with KHB at 11 mm Hg preload and 70 mm Hg after load. Heart rate (HR, beats/min), aortic and coronary flow (AF and CF, ml/min.), cardiac output (CO=AF+CF, ml/min.), systolic and diastolic aortic pressure (mm Hg) were recorded. Coronary vascular resistance and work were calculated according to Neely et al., 1967 (Neely et al. “Effect of Pressure Development on Oxygen Consumption by the Isolated Rat Heart ”. Am. J. Physiology, 212:804-12, 1967).

[2] = tested on: erythrocytes; test: Hemolysis of rat erythrocytes after step loading and unloading with ethylene glycol vitrification solution; format: cell-based; settings: added to 60 wt % EG+0.9 wt % NaCl vitrification solution; 60 min equilibration and two unloading steps; room temperature, pH 7.0; FIG. 1
Experimental: Blood was sampled from external jugular vein of rats after heart extrusion described in Example 1.
Step 1: 100 μl of blood were mixed with 100 μl of 30 wt % EG+0.9 wt % NaCl. Equilibration time 10 min.
Step 2: 1000 μl of vitrification solution vitrification solution containing mixture of 60 wt % EG+0.9 wt % NaCl with different amounts of glutamic acid monosodium Salt (GA) per gram of Vitrification solution were slowly (during 3-5 min.) added to the mixture obtained after Step 1.
After that the blood cells were equilibrated in Vitrification solution during 60 min. before unloading.
Step 1: After 60 min. equilibration in vitrification solution erythrocytes were centrifuged down (5 min. at 2000 g), 0.5 ml of supernatant was removed from each sample, and 0.5 ml of 3 wt % GA+0.9 wt % NaCl were added to each sample. […]
Concentration of free hemoglobin in supernatants collected from the samples after equilibration in Vitrification solution, first and second step of unloading was used to characterize the erythrocyte damage (hemolysis). The concentration of free hemoglobin was measured using 390 Turner spectrophotometer (at 550 nm wavelength) after adding 0.5 ml of supernatant to 3 ml of water. The hemolysis was measured as a ratio of hemoglobin concentration in the supernatants to the hemoglobin concentration in the mixture of 41.7 μl of blood with 3.5 ml water that was taken as 100% hemolysis. […]

[3] = tested on: Drosophila melanogaster embryos; settings: co-solute in ethylene glycol vitrification solution; cited from earlier work
[4] = Experiment 0: loaded to 30 wt % DMSO in 30 min, unloaded 60 min, no co-solutes (mannitol not present)

In the case of `C[S+](C)[O-]` [DMSO, dimethylsulfoxide], the “recovery in function after unloading” value [1, 4] is reported as “no recovery in function” and the “state of the heart (contracture)” value [1, 4] is reported as “developed contracture”.

With `N[C@@H](CCC(=O)O)C(=O)[O-].[Na+]` [GA, glutamic acid monosodium Salt] the “effect of co-solute on erythrocyte damage (hemolysis)” value [2] was “protects erythrocytes from damage”.

In the case of `N[C@@H](CCC(=O)O)C(=O)O` [glutamic acid], the “effect on ethylene glycol permeation into embryos” value [3] is listed as “significantly diminished ethylene glycol permeation”.

In the case of `NCC(=O)O` [glycine], the “effect on ethylene glycol permeation into embryos” value [3] is given as “significantly diminished ethylene glycol permeation”.

For `OC[C@@H](O)[C@@H](O)[C@H](O)[C@H](O)CO` [mannitol], the “effect of presence of mannitol on damage to the heart caused by high concentration of DMSO and changes in osmotic pressure” value ([1]; mannitol present during loading, perfusion and unloading (Experiments 1 and 2)) was “prevented damage to the heart”.

For `OC[C@@H](O)[C@@H](O)[C@H](O)[C@@H](O)CO` [sorbitol], the “effect on ethylene glycol permeation into embryos” value [3] is given as “significantly diminished ethylene glycol permeation”.
